Assay results as given in patent publication US10981932B2, “Macrocyclic indole derivatives” (Bayer Aktiengesellschaft, priority 2016, dated 2021).
Counter-ions that a name gives are not always drawn. Like-named read-outs stand apart in the source and are kept apart here.

Experiments:
MV-4-11 = assay: Anti-proliferative effect (CellTiter-Glo, 72 h), MV-4-11; assay type: cell-based; conditions: Homo sapiens, median, read-out: IC50 antiproliferation assay MV-4-11 [M] (median)
Procedure, shortened: (§1)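 Cells were treated with compounds for 72 h at 37 °C in a humidified incubator, and viability was measured by CellTiter-Glo luminescence. A parallel day 0 plate, read the same way, gave the time zero baseline.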

SUDHL5 [1] = assay: Induction of caspase-3/7 activity (Caspase-Glo 3/7), SUDHL5; assay type: cell-based; conditions: caspase-3/7 induction, SUDHL5 cells, 3 h treatment, median
Procedure, shortened: (§2)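 DLBCL cells treated with compounds for 3 h at 37 °C, then caspase-3/7 activity read by Caspase-Glo 3/7 luminescence. Medium-only background subtracted; EC50 fitted with C0 fixed at 1 and top set to the reference compound's maximal induction.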

MCL-1 = MCL-1 (Homo sapiens, UniProt Q07820); assay: Protein-protein interaction assay MCL-1/Noxa BH3 peptide (MCL-1 assay), TR-FRET; assay type: binding; conditions: MBP-MCL-1 / Noxa BH3-derived peptide, median
Procedure, shortened: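 TR-FRET, 665/622 nm emission ratio (excitation 330–350 nm), measured MCL-1/Noxa complex formation. 1 nM MBP-MCL-1, 50 mM Tris/HCl pH 7, 0.1% BGG, 2 mM DTT. Incubation 1 h at 22 °C, then overnight at 4 °C. IC50 by 4-parameter regression, normalized to DMSO (0%) and no-MCL-1 (100%) controls.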

SUDHL10 [2] = assay: Anti-proliferative effect (CellTiter-Glo, 72 h), SUDHL10; assay type: cell-based; conditions: SUDHL10 cells, antiproliferation, median, read-out: Antiproli SUDHL10 [M] (median)
Procedure, shortened: as §1

A2780 = assay: Anti-proliferative effect (CellTiter-Glo, 72 h), A2780; assay type: cell-based; conditions: A2780 cells, median, read-out: IC50 antiproliferation assay A2780 [M] (median)
Procedure, shortened: as §1

SUDHL10 [3] = assay: Induction of cytotoxicity (CellTiter-Glo, 5 h), SUDHL10
SUDHL10 [4] = assay: Induction of caspase-3/7 activity (Caspase-Glo 3/7), SUDHL10; assay type: cell-based; conditions: caspase-3/7 induction, SUDHL10 cells, 3 h treatment, median
Procedure, shortened: as §2

SUDHL5 [5] = assay: Induction of cytotoxicity (CellTiter-Glo, 5 h), SUDHL5
SUDHL5 [6] = assay: Anti-proliferative effect (CellTiter-Glo, 72 h), SUDHL5; assay type: cell-based; conditions: SUDHL5 cells, antiproliferation, median, read-out: Antiproli SUDHL5 [M] (median)
Procedure, shortened: as §1

[7] = read-out: Cytotox SUDHL10 [M] (median), SUDHL10 cells, cytotoxicity induction, CellTiter-Glo, 5 h, median
[8] = read-out: Cytotox SUDHL5 [M] (median), SUDHL5 cells, cytotoxicity induction, CellTiter-Glo, 5 h, median
[9] = Homo sapiens, SU-DHL10, 5 h, read-out: Cytotox SUDHL10 [M] (median), SUDHL10 cells, cytotoxicity induction, CellTiter-Glo, 5 h incubation, median
[10] = read-out: Cytotox SUDHL5 [M] (median), SUDHL5 cells, cytotoxicity induction, CellTiter-Glo, 5 h incubation, median
[11] = Homo sapiens, SU-DHL-5, 72 h, 72 h incubation

MCL-1, sequence (Q07820 whole entry): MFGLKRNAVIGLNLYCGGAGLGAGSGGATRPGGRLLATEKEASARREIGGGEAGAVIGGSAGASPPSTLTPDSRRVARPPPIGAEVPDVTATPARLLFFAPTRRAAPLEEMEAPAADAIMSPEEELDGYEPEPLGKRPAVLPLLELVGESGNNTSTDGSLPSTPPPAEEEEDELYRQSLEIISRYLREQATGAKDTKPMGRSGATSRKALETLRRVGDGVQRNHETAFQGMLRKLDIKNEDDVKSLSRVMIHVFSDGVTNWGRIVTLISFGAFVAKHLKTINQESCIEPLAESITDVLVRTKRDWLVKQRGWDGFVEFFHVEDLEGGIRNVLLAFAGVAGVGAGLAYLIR

EC50 (SUDHL5 [1]) [µM]	IC50 (MCL-1) [µM]	IC50 (A2780) [M]	EC50 (SUDHL10 [4]) [µM]	IC50 (MV-4-11; MV4-11, 72 h, MV-4-11 cells) [M]	IC50 (A2780; Homo sapiens, A2780, 72 h) [M]	EC50 (SUDHL10 [4]; Homo sapiens, SU-DHL10, 3 h) [µM]	IC50 (SUDHL5 [6]; [11]) [M]	IC50 (SUDHL10 [2]; 72 h incubation) [M]	SMILES	IC50 (SUDHL10 [2]; 72 h) [M]	IC50 (SUDHL10 [3]; [7]) [M]	IC50 (SUDHL5 [5]; [8]) [M]	IC50 (SUDHL5 [6]; 72 h) [M]	IC50 (SUDHL10 [3]; [9]) [M]	IC50 (SUDHL5 [5]; [10]) [M]	further results
6.63	0.00357	–	–	4.1e-06	> 3.3e-05	25.3	7.61e-06	–	Cc1nn(C)c2c1-c1cccc3c(CCCOc4cccc5ccccc45)c(C(=O)O)n(c13)CCCOC2 (single isomer, unassigned; enantiomer 1) [Example 044, 9,11-dimethyl-1-[3-(naphthalen-1-yloxy)propyl]-5,6,8,9-tetrahydro-4H-pyrazolo[4′,3′:8,9][1,5]oxazecino[7,6,5-h]indole-2-carboxylic acid-N-ethylethanamine Salt (Enantiomer 1)]	–	–	–	–	2.34e-05	6.01e-06	IC50 (SUDHL10 [2]; Homo sapiens, SU-DHL10, 72 h, 72 h incubation): 1.1e-05 M
2.85	0.000987	3.25e-05	12	8.03e-06	> 3.3e-05	–	–	3.1e-06	Cc1nn(C)c2c1-c1cccc3c(CCCOc4cccc5c4CCCC5)c(C(=O)O)n(c13)CCCCOC2 (single isomer, unassigned; enantiomer 1) [Example 007, 1,3-dimethyl-7-[3-(5,6,7,8-tetrahydronaphthalen-1-yloxy)propyl]-1,10,11,12,13,15-hexahydropyrazolo[4′,3′:9,10][1,6]oxazacycloundecino[8,7,6-hi]indole-8-carboxylic acid-N-ethylethanamine Salt (Enantiomer 1)]	–	–	–	–	–	3.54e-06	IC50 (SUDHL10 [3]; read-out: Cytotox SUDHL10 [M] (median), SUDHL10 cells, cytotoxicity induction, CellTiter-Glo, 5 h incubation, median): 6e-06 M; IC50 (SUDHL5 [6]; 72 h incubation): 5.16e-06 M
–	0.0186	–	–	6.84e-06	1.51e-05	32.8	1.62e-05	4.25e-06	Cn1nc(CN2CCOCC2)c2c1COCC=CCn1c(C(=O)O)c(CCCOc3cccc4ccccc34)c3cccc-2c31 (single isomer, unassigned; enantiomer 1) [Example 133, (E/Z)-1-methyl-3-(morpholin-4-ylmethyl)-7-[3-(naphthalen-1-yloxy)propyl]-1,10,13,15-tetrahydropyrazolo[4′,3′:9,10][1,6]oxazacycloundecino[8,7,6-hi]indole-8-carboxylic acid-N-ethylethanamine Salt (Enantiomer 1)]	–	–	–	–	2.95e-05	–	EC50 (SUDHL5 [1]; Homo sapiens, SU-DHL-5, 3 h): 17.6 µM; IC50 (SUDHL5 [5]; Homo sapiens, SU-DHL-5, 5 h, read-out: Cytotox SUDHL5 [M] (median), SUDHL5 cells, cytotoxicity induction, CellTiter-Glo, 5 h incubation, median): 1.84e-05 M
16.9	0.0917	2.87e-05	25.7	1.47e-05	–	–	–	–	Cn1nc(CN2CCCCC2)c2c1COCCCCn1c(C(=O)O)c(CCCOc3cccc4ccccc34)c3cccc-2c31 (single isomer, unassigned; enantiomer 2) [Example 334, 1-methyl-7-[3-(naphthalen-1-yloxy)propyl]-3-(piperidin-1-ylmethyl)-1,10,11,12,13,15-hexahydropyrazolo[4′3′:9,10][1,6]oxazacycloundecino[8,7,6-hi]indole-8-carboxylic Acid (Enantiomer 2)]	1.54e-05	2.67e-05	1.85e-05	1.68e-05	–	–	–

SMILES	EC50 (SUDHL5 [1]) [µM]	IC50 (MCL-1) [µM]	IC50 (A2780) [M]	EC50 (SUDHL10 [4]) [µM]	IC50 (MV-4-11; MV4-11, 72 h, MV-4-11 cells) [M]	IC50 (A2780; Homo sapiens, A2780, 72 h) [M]	EC50 (SUDHL10 [4]; Homo sapiens, SU-DHL10, 3 h) [µM]	IC50 (SUDHL5 [6]; [11]) [M]	IC50 (SUDHL10 [2]; 72 h incubation) [M]	IC50 (SUDHL10 [2]; 72 h) [M]	IC50 (SUDHL10 [3]; [7]) [M]	IC50 (SUDHL5 [5]; [8]) [M]	IC50 (SUDHL5 [6]; 72 h) [M]	IC50 (SUDHL10 [3]; [9]) [M]	IC50 (SUDHL5 [5]; [10]) [M]	further results
Cn1nc(CN2CC3(COC3)C2)c2c1COCCCCn1c(C(=O)O)c(CCCOc3cccc4ccccc34)c3cccc-2c31 (single isomer, unassigned; enantiomer 2) [Example 345, 1-methyl-7-[3-(naphthalen-1-yloxy)propyl]-3-(2-oxa-6-azaspiro[3.3]hept-6-ylmethyl)-1,10,11,12,13,15-hexahydropyrazolo[4′,3′:9,10][1,6]oxazacycloundecino[8,7,6-hi]indole-8-carboxylic acid-N-ethylethanamine Salt (Enantiomer 2)]	7.02	0.026	1.59e-05	12.8	–	–	–	–	–	5.68e-06	1.32e-05	8.32e-06	7.32e-06	–	–	IC50 (MV-4-11; MV4-11, MV-4-11 cells): 7.47e-06 M
